Test results as given in patent US20200239530A1, “COMPOUNDS AND METHODS OF MODULATING PROTEIN DEGRADATION” (Vividion Therapeutics, Inc., priority 2017, published 2020).
Read-outs that look alike come from different tables or passages of the source. Each block holds one compound with its values, some of them ahead of it.

Key:
Assay in all cases: Cysteine liganding, probe competition
Assay type in all cases: binding
UniProt O43255 = molecular target: T1, UniProt O43255 (Homo sapiens, UniProt O43255)
T1 construct: 200 μL of lysate containing 5 mg/ml proteome was treated with 2 μL of 100× compound stock; endogenous in cells
T1 sequence (O43255 1-324): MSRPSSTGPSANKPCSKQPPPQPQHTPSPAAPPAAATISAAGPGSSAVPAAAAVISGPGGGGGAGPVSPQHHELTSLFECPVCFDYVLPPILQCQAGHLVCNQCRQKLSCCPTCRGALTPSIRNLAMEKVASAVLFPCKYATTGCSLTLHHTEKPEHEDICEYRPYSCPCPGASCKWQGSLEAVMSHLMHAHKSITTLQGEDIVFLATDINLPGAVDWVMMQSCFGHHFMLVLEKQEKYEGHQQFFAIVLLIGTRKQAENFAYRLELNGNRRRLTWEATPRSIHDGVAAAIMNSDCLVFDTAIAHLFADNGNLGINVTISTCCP
From the text: (§1) The following 96-well sample prep protocol was used for sample preparation.

UniProt O43791 = molecular target: T2, UniProt O43791 (Homo sapiens, UniProt O43791)
T2 construct: 200 μL of lysate containing 5 mg/ml proteome was treated with 2 μL of 100× compound stock; endogenous in cells
From the text: as §1

UniProt P63208 = molecular target: T3, UniProt P63208 (Homo sapiens, UniProt P63208); settings: for percent_inhibition: 100 uM; for inhibition at 100 µM: read-out: percent_inhibition
T3 construct: 200 μL of lysate containing 5 mg/ml proteome was treated with 2 μL of 100× compound stock; endogenous in cells
From the text: as §1

UniProt Q6VVB1 = molecular target: T4, UniProt Q6VVB1 (Homo sapiens, UniProt Q6VVB1)
T4 construct: Cells were resuspended in cold PBS on ice and sonicated with a probe sonicator to achieve lysis; endogenous in cells
From the text: as §1

UniProt Q7Z6J0 = molecular target: T5, UniProt Q7Z6J0 (Homo sapiens, UniProt Q7Z6J0); settings: for inhibition at 100 µM: read-out: percent_inhibition
T5 construct: 200 μL of lysate containing 5 mg/ml proteome was treated with 2 μL of 100× compound stock; endogenous in cells
T5 sequence (Q7Z6J0 1-888): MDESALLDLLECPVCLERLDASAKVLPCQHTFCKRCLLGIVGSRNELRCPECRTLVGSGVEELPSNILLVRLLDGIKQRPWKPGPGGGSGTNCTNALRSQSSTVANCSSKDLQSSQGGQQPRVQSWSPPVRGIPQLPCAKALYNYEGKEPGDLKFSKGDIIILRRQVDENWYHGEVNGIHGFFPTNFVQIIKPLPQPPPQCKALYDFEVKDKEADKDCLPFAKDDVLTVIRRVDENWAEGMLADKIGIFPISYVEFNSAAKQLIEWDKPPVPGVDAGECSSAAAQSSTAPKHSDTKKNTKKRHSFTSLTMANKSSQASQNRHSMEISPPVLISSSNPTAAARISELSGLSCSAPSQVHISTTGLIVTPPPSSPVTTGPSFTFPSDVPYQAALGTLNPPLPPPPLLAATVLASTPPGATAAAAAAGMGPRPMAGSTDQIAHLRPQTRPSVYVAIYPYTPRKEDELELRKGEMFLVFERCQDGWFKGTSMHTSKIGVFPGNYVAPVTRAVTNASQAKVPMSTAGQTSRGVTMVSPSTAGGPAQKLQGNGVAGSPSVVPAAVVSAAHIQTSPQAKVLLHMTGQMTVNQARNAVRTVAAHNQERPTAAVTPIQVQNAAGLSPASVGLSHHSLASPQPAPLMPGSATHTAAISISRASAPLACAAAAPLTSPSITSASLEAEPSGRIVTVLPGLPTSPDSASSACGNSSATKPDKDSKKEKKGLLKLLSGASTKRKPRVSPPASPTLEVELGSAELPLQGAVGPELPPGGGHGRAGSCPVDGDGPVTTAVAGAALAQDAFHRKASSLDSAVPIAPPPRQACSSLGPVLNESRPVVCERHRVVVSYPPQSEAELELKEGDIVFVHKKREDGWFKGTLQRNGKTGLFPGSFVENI
From the text: as §1

UniProt Q9H0F5 = molecular target: T6, UniProt Q9H0F5 (Homo sapiens, UniProt Q9H0F5); settings: for percent_inhibition / inhibition at 500 µM: 500 uM
T6 construct: 200 μL of lysate containing 5 mg/ml proteome was treated with 2 μL of 100× compound stock; endogenous in cells
From the text: as §1

UniProt Q9NX47 = molecular target: T7, UniProt Q9NX47 (Homo sapiens, UniProt Q9NX47)
T7 construct: Cells were resuspended in cold PBS on ice and sonicated with a probe sonicator to achieve lysis; endogenous in cells
From the text: as §1

UniProt Q9Y2Z0 = molecular target: T8, UniProt Q9Y2Z0 (Homo sapiens, UniProt Q9Y2Z0); settings: read-out: percent_inhibition
T8 construct: 200 μL of lysate containing 5 mg/ml proteome was treated with 2 μL of 100× compound stock; endogenous in cells
From the text: as §1

UniProt O94972 = molecular target: T9, UniProt O94972 (Homo sapiens, UniProt O94972)
T9 construct: 200 μL of lysate containing 5 mg/ml proteome was treated with 2 μL of 100× compound stock; endogenous in cells
From the text: as §1

UniProt O96028 = molecular target: T10, UniProt O96028 (Homo sapiens, UniProt O96028); settings: 500 uM
T10 construct: Cells were resuspended in cold PBS on ice and sonicated with a probe sonicator to achieve lysis; endogenous in cells
From the text: as §1

UniProt Q13233 = molecular target: T11, UniProt Q13233 (Homo sapiens, UniProt Q13233)
T11 construct: Cells were resuspended in cold PBS on ice and sonicated with a probe sonicator to achieve lysis; endogenous in cells
From the text: as §1

UniProt Q8IY92 = molecular target: T12, UniProt Q8IY92 (Homo sapiens, UniProt Q8IY92)
T12 construct: 200 μL of lysate containing 5 mg/ml proteome was treated with 2 μL of 100× compound stock; endogenous in cells
From the text: as §1

UniProt Q969K3 = molecular target: T13, UniProt Q969K3 (Homo sapiens, UniProt Q969K3)
T13 construct: 200 μL of lysate containing 5 mg/ml proteome was treated with 2 μL of 100× compound stock; endogenous in cells
From the text: as §1

UniProt Q9BSL1 = molecular target: T14, UniProt Q9BSL1 (Homo sapiens, UniProt Q9BSL1)
T14 construct: 200 μL of lysate containing 5 mg/ml proteome was treated with 2 μL of 100× compound stock; endogenous in cells
T14 sequence (Q9BSL1 1-405): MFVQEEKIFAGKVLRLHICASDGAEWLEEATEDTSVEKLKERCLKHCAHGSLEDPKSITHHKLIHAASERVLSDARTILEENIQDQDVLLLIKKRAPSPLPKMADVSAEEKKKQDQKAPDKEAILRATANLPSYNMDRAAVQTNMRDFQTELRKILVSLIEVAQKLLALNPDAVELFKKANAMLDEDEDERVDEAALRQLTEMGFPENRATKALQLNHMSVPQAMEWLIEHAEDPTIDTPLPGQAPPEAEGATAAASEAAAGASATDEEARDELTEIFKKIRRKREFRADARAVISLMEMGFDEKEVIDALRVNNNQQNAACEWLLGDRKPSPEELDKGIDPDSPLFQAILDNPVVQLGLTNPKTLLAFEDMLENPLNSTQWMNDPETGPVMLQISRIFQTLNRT
From the text: as §1

UniProt Q9H992 = molecular target: T15, UniProt Q9H992 (Homo sapiens, UniProt Q9H992)
T15 construct: Cells were resuspended in cold PBS on ice and sonicated with a probe sonicator to achieve lysis; endogenous in cells
From the text: as §1

[1] = 100 uM, read-out: percent_inhibition

T3 sequence (P63208 whole entry, change not shown): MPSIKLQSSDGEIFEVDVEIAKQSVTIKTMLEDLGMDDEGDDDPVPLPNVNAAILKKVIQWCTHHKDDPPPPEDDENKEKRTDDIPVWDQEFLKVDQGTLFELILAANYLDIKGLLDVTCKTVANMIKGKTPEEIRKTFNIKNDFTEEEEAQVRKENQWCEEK
T6 sequence (Q9H0F5 whole entry, change not shown): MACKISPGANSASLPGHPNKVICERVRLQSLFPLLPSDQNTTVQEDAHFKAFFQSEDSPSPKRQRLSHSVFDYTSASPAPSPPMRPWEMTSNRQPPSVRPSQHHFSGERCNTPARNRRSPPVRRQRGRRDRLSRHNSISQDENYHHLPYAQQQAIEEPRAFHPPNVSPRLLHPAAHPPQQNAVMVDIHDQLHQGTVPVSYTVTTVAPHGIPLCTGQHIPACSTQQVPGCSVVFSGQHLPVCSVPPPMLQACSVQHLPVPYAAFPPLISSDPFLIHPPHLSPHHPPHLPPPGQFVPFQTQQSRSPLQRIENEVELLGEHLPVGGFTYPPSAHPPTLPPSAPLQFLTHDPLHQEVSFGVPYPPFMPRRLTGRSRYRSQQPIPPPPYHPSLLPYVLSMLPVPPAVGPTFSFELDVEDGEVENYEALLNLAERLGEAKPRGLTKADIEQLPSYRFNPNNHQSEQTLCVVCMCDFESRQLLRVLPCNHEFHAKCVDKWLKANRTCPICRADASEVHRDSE
T8 sequence (Q9Y2Z0 whole entry, change not shown): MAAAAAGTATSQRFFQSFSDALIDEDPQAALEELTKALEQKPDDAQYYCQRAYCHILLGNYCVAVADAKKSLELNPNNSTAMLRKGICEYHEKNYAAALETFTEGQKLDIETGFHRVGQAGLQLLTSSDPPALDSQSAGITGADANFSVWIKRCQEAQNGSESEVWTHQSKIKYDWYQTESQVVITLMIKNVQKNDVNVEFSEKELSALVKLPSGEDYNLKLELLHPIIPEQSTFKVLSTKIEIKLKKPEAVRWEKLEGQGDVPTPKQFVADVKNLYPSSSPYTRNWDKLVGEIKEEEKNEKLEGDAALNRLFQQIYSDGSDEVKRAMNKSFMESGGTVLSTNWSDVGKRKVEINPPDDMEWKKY
T10 sequence (O96028 whole entry, change not shown): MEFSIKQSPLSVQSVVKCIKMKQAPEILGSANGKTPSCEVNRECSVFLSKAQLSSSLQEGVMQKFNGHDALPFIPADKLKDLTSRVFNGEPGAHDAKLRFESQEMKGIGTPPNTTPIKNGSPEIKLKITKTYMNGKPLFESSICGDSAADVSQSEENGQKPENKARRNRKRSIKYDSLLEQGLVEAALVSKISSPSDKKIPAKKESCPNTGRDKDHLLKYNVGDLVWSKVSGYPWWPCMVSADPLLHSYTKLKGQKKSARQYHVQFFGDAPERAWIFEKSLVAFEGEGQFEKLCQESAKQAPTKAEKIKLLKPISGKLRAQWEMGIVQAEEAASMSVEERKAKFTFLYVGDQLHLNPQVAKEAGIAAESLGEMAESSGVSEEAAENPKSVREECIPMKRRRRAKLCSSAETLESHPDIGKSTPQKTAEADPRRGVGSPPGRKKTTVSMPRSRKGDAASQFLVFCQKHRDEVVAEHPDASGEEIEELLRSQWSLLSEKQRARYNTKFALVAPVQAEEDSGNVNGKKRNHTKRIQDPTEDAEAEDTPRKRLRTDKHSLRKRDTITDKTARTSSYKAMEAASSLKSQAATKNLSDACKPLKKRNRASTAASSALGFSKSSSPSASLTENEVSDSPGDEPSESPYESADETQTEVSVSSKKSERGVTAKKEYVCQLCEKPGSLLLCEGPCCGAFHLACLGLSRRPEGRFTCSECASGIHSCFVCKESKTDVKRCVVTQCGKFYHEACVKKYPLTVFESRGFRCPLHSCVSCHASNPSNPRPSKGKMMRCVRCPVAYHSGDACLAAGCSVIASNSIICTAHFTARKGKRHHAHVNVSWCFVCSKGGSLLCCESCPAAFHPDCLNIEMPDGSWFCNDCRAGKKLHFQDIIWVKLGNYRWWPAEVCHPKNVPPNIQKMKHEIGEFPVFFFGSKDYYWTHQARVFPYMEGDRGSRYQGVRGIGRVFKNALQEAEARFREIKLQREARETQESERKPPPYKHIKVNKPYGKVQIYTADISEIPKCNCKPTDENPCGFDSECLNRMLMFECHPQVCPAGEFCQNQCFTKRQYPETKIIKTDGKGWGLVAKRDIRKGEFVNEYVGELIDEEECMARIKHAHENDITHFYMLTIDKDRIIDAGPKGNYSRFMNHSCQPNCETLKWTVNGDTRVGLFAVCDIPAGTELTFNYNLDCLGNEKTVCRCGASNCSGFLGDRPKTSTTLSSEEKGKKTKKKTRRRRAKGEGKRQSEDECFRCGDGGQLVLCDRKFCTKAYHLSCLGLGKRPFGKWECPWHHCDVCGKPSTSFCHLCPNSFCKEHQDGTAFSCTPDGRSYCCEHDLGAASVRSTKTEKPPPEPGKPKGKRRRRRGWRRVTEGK
T12 sequence (Q8IY92 whole entry, change not shown): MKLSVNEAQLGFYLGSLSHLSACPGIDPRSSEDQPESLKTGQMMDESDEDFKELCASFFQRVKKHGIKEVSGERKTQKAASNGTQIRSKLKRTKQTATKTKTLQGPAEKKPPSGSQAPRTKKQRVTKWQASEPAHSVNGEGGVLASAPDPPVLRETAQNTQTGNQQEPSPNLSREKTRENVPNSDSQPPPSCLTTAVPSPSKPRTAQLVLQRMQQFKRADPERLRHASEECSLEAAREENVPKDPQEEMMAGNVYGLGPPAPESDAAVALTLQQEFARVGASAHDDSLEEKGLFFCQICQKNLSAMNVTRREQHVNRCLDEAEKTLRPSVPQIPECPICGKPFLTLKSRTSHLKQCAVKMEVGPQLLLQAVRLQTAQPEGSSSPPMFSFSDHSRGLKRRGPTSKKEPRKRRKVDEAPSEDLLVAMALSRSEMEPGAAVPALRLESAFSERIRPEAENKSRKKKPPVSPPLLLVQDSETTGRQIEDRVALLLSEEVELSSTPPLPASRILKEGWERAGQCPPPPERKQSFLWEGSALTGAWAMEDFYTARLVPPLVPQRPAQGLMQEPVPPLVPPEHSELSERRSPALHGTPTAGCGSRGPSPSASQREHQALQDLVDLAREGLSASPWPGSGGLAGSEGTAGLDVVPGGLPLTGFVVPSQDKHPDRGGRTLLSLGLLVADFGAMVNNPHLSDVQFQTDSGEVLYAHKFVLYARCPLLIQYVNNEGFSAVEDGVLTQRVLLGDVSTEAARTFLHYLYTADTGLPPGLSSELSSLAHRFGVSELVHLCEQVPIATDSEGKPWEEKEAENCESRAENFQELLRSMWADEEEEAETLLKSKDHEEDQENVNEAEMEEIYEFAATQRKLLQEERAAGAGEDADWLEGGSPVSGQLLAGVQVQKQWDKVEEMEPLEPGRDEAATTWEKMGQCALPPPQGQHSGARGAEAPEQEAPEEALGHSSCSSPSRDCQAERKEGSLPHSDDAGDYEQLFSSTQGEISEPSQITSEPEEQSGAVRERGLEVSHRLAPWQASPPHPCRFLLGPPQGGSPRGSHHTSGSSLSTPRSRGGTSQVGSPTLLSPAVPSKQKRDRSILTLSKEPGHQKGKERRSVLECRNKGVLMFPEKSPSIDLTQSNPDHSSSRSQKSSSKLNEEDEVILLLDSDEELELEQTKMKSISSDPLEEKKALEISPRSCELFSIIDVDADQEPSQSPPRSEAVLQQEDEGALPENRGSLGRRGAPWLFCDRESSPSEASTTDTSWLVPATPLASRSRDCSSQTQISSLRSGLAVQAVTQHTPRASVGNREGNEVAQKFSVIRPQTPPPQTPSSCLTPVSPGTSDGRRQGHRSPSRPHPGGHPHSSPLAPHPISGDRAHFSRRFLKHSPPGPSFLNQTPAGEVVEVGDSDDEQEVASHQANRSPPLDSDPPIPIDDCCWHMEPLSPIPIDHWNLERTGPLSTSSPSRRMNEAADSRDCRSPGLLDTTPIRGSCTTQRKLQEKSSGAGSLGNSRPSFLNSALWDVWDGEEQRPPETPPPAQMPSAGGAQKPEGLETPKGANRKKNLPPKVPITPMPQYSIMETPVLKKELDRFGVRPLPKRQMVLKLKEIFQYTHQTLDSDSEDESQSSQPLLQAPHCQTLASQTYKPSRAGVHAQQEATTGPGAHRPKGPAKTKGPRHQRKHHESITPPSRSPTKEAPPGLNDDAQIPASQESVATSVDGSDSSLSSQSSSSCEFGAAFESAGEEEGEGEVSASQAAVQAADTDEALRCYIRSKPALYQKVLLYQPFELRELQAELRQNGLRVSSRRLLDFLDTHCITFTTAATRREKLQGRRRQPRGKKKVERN
T15 sequence (Q9H992 whole entry, change not shown): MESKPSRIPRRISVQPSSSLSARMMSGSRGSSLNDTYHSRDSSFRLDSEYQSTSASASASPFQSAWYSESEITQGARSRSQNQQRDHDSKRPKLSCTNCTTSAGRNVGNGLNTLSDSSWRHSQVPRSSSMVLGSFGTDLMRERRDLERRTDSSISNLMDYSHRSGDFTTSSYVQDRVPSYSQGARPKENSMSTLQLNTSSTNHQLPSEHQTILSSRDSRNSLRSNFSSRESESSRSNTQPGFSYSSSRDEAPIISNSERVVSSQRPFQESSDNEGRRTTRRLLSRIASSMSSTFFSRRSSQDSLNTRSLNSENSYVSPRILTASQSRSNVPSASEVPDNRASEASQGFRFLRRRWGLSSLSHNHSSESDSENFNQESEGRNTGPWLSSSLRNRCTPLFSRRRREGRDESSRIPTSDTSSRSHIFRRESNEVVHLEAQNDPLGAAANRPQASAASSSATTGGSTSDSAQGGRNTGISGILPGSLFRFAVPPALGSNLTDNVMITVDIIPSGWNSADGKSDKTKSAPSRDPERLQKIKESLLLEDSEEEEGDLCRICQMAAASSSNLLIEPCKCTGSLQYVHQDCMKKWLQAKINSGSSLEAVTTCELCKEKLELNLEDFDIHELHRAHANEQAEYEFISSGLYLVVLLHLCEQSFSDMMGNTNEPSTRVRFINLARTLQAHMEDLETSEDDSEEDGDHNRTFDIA

Structure (SMILES): COc1ccc2c(c1)CCCN2C(=O)CCl [KB02]
percent_inhibition (UniProt O43255; 100 uM): 20% | inhibition at 100 µM (UniProt O43255; [1]): 31% | inhibition at 100 µM (UniProt O43791; read-out: percent_inhibition): 49% | percent_inhibition (UniProt P63208): 18% | inhibition at 100 µM (UniProt P63208): 13% | inhibition at 500 µM (UniProt Q6VVB1; read-out: KB02_500 uM_percent_inhibition): 9% | inhibition at 100 µM (UniProt Q7Z6J0): 42% | inhibition at 100 µM (UniProt Q9H0F5; [1]): 44% | percent_inhibition (UniProt Q9H0F5): 42% | inhibition at 500 µM (UniProt Q9H0F5; read-out: percent_inhibition): 24% | inhibition at 100 µM (UniProt Q9NX47; read-out: percent inhibition): 7% | inhibition at 100 µM (UniProt Q9Y2Z0): 20%

inhibition at 500 µM (UniProt O43255; 500 uM, read-out: percent_inhibition): 28% | inhibition at 100 µM (UniProt O94972; read-out: KB05_100 uM_percent_inhibition): 18% | KB05_500 uM_percent_inhibition (UniProt O96028): 79% | percent_inhibition (UniProt P63208): 14% | inhibition at 100 µM (UniProt P63208): 15% | inhibition at 100 µM (UniProt Q13233; read-out: percent inhibition): 31% | inhibition at 500 µM (UniProt Q6VVB1; read-out: KB05_500 uM_percent_inhibition): 15% | percent_inhibition (UniProt Q7Z6J0; 100 uM): 4% | inhibition at 100 µM (UniProt Q7Z6J0): 3% | inhibition at 100 µM (UniProt Q8IY92; read-out: percent_inhibition): 10% | inhibition at 100 µM (UniProt Q969K3; read-out: percent_inhibition): 8% | inhibition at 100 µM (UniProt Q9BSL1; 100 uM, read-out: KB05_100 uM_percent_inhibition): 36% | KB05_500 uM_percent_inhibition (UniProt Q9BSL1; 500 uM): 57% | inhibition at 500 µM (UniProt Q9BSL1; 500 uM, read-out: KB05_500 uM_percent_inhibition): 48% | percent_inhibition (UniProt Q9H0F5): 10% | inhibition at 500 µM (UniProt Q9H0F5; read-out: percent_inhibition): 16% | inhibition at 100 µM (UniProt Q9H992; read-out: percent inhibition): 21% | inhibition at 100 µM (UniProt Q9Y2Z0): 31%
Structure (SMILES): C=CC(=O)N(c1ccccc1)c1ccc(Br)cc1 [KB05]

Structure (SMILES): O=C(CCl)Nc1cc(C(F)(F)F)cc(C(F)(F)F)c1 [KBO3]
percent_inhibition (UniProt O43791; 100 uM): 57% | KB03_100 uM_percent_inhibition (UniProt O94972; 100 uM): 36% | KB03_500 uM_percent_inhibition (UniProt O96028): 78% | percent inhibition (UniProt Q13233; 100 uM): 19% | percent_inhibition (UniProt Q8IY92; 100 uM): 8% | percent_inhibition (UniProt Q969K3; 100 uM): 18% | KB03_100 uM_percent_inhibition (UniProt Q9BSL1; 100 uM): 36% | percent inhibition (UniProt Q9H992; 100 uM): 82% | percent inhibition (UniProt Q9NX47; 100 uM): 30%
